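Tested at 5 concentrations; 48 h exposure; 96-well plates; endpoints linearly interpolated, else capped at highest concentration. GI50 is the concentration that inhibits growth by half. TGI denotes the concentration required for complete inhibition of growth.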
Assays:
Assay in all cases: inhibition of tumour cell growth, NCI panel, 48 h
MOLT-4 leukemia = system: MOLT-4 leukemia
OVCAR-8 ovarian = system: OVCAR-8 ovarian
SF-268 CNS = system: SF-268 CNS
UACC-257 melanoma = system: UACC-257 melanoma
U251 CNS = system: U251 CNS
SF-539 CNS = system: SF-539 CNS
SR leukemia = system: SR leukemia
MDA-MB-435 = system: MDA-MB-435
K-562 leukemia = system: K-562 leukemia
NCI-H23 lung = system: NCI-H23 lung
SW-620 colon = system: SW-620 colon
SK-MEL-28 melanoma = system: SK-MEL-28 melanoma
HCT-116 colon = system: HCT-116 colon
HCC-2998 colon = system: HCC-2998 colon
UO-31 renal = system: UO-31 renal
DU-145 prostate = system: DU-145 prostate
PC-3 prostate = system: PC-3 prostate
SK-MEL-2 melanoma = system: SK-MEL-2 melanoma
HOP-92 NSCLC = system: HOP-92 NSCLC
ACHN renal = system: ACHN renal
T-47D breast = system: T-47D breast
UACC-62 melanoma = system: UACC-62 melanoma
M14 melanoma = system: M14 melanoma
BT-549 breast = system: BT-549 breast
NCI-H522 lung = system: NCI-H522 lung
SN12C renal = system: SN12C renal
SNB-75 CNS = system: SNB-75 CNS
HT29 colon = system: HT29 colon
MALME-3M melanoma = system: MALME-3M melanoma
RPMI-8226 leukemia = system: RPMI-8226 leukemia
CAKI-1 renal = system: CAKI-1 renal
RXF 393 renal = system: RXF 393 renal
MDA-MB-231 breast = system: MDA-MB-231 breast
NCI-H460 lung = system: NCI-H460 lung
OVCAR-5 ovarian = system: OVCAR-5 ovarian
COLO 205 colon = system: COLO 205 colon
SK-OV-3 ovarian = system: SK-OV-3 ovarian
786-0 renal = system: 786-0 renal
CCRF-CEM leukemia = system: CCRF-CEM leukemia
TK-10 renal = system: TK-10 renal
A498 renal = system: A498 renal
A549 NSCLC = system: A549 NSCLC
SK-MEL-5 melanoma = system: SK-MEL-5 melanoma
SNB-19 CNS = system: SNB-19 CNS
HOP-62 NSCLC = system: HOP-62 NSCLC
EKVX NSCLC = system: EKVX NSCLC
HL-60(TB) leukemia = system: HL-60(TB) leukemia
KM12 colon = system: KM12 colon
OVCAR-3 ovarian = system: OVCAR-3 ovarian
NCI-H226 lung = system: NCI-H226 lung
LOX IMVI melanoma = system: LOX IMVI melanoma
OVCAR-4 ovarian = system: OVCAR-4 ovarian
MCF7 breast = system: MCF7 breast
NCI/ADR-RES ovarian = system: NCI/ADR-RES ovarian
IGROV1 ovarian = system: IGROV1 ovarian
HCT-15 colon = system: HCT-15 colon
SF-295 CNS = system: SF-295 CNS

CCCCCCCCCCCCCCCCCC1=NCCN1CCOC1=C(Cl)C(=O)c2ccccc2C1=O
GI50 (MOLT-4 leukemia): 0.747 µM | TGI (MOLT-4 leukemia): 3.8 µM | GI50 (OVCAR-8 ovarian): 1.95 µM | TGI (OVCAR-8 ovarian): 4.43 µM | GI50 (SF-268 CNS): 2.08 µM | TGI (SF-268 CNS): 4.61 µM | GI50 (UACC-257 melanoma): 1.83 µM | TGI (UACC-257 melanoma): 3.3 µM | GI50 (U251 CNS): 1.87 µM | TGI (U251 CNS): 3.67 µM | GI50 (SF-539 CNS): 1.83 µM | TGI (SF-539 CNS): 3.78 µM | GI50 (SR leukemia): 2.07 µM | TGI (SR leukemia): 4.72 µM | GI50 (MDA-MB-435): 2.05 µM | TGI (MDA-MB-435): 4.02 µM | GI50 (K-562 leukemia): 0.828 µM | TGI (K-562 leukemia): 4.2 µM | GI50 (NCI-H23 lung): 2.5 µM | TGI (NCI-H23 lung): 7.73 µM | GI50 (SW-620 colon): 1.73 µM | TGI (SW-620 colon): 3.41 µM | GI50 (SK-MEL-28 melanoma): 3.31 µM | TGI (SK-MEL-28 melanoma): 9.05 µM | GI50 (HCT-116 colon): 1.82 µM | TGI (HCT-116 colon): 3.43 µM | GI50 (HCC-2998 colon): 3.51 µM | TGI (HCC-2998 colon): 12.3 µM | GI50 (UO-31 renal): 1.37 µM | TGI (UO-31 renal): 2.77 µM | GI50 (DU-145 prostate): 6.09 µM | TGI (DU-145 prostate): 18.1 µM | GI50 (PC-3 prostate): 1.85 µM | TGI (PC-3 prostate): 4.27 µM | GI50 (SK-MEL-2 melanoma): 2.39 µM | TGI (SK-MEL-2 melanoma): 5.08 µM | GI50 (HOP-92 NSCLC): 1.78 µM | TGI (HOP-92 NSCLC): 3.4 µM | GI50 (ACHN renal): 1.58 µM | TGI (ACHN renal): 3.01 µM | GI50 (T-47D breast): 1.86 µM | TGI (T-47D breast): 4.43 µM | GI50 (UACC-62 melanoma): 2.12 µM | TGI (UACC-62 melanoma): 4.99 µM | GI50 (M14 melanoma): 1.84 µM | TGI (M14 melanoma): 3.39 µM | GI50 (BT-549 breast): 2.46 µM | TGI (BT-549 breast): 6.12 µM | GI50 (NCI-H522 lung): 1.79 µM | TGI (NCI-H522 lung): 3.38 µM | GI50 (SN12C renal): 3.18 µM | TGI (SN12C renal): 9.47 µM | GI50 (SNB-75 CNS): 2.2 µM | TGI (SNB-75 CNS): 8.54 µM | GI50 (HT29 colon): 2.58 µM | TGI (HT29 colon): 6.13 µM | GI50 (MALME-3M melanoma): 1.95 µM | TGI (MALME-3M melanoma): 4.13 µM | GI50 (RPMI-8226 leukemia): 2.17 µM | TGI (RPMI-8226 leukemia): 5.28 µM | GI50 (CAKI-1 renal): 1.57 µM | TGI (CAKI-1 renal): 2.98 µM | GI50 (RXF 393 renal): 1.79 µM | TGI (RXF 393 renal): 3.2 µM | GI50 (MDA-MB-231 breast): 2.05 µM | TGI (MDA-MB-231 breast): 5.03 µM | GI50 (NCI-H460 lung): 3.33 µM | TGI (NCI-H460 lung): 16.1 µM | GI50 (OVCAR-5 ovarian): 2.29 µM | TGI (OVCAR-5 ovarian): 5.27 µM | GI50 (COLO 205 colon): 1.67 µM | TGI (COLO 205 colon): 3.09 µM | GI50 (SK-OV-3 ovarian): 1.93 µM | TGI (SK-OV-3 ovarian): 5.11 µM | GI50 (786-0 renal): 2.19 µM | TGI (786-0 renal): 4.09 µM | GI50 (CCRF-CEM leukemia): 0.527 µM | TGI (CCRF-CEM leukemia): 7.17 µM | GI50 (TK-10 renal): 2.19 µM | TGI (TK-10 renal): 3.76 µM | GI50 (A498 renal): 3.92 µM | TGI (A498 renal): 14.7 µM | GI50 (A549 NSCLC): 4.48 µM | TGI (A549 NSCLC): 22.9 µM | GI50 (SK-MEL-5 melanoma): 2.36 µM | TGI (SK-MEL-5 melanoma): 6.75 µM | GI50 (SNB-19 CNS): 3.56 µM | TGI (SNB-19 CNS): 11.5 µM | GI50 (HOP-62 NSCLC): 1.77 µM | TGI (HOP-62 NSCLC): 3.27 µM | GI50 (EKVX NSCLC): 1.46 µM | TGI (EKVX NSCLC): 3.32 µM | GI50 (HL-60(TB) leukemia): 1.34 µM | TGI (HL-60(TB) leukemia): 6 µM | GI50 (KM12 colon): 1.91 µM | TGI (KM12 colon): 3.61 µM | GI50 (OVCAR-3 ovarian): 1.85 µM | TGI (OVCAR-3 ovarian): 3.34 µM

CCC(C=O)P1(=O)OC(C)(C)CN1C(C)(C)C (centres undefined)
TGI (OVCAR-8 ovarian): > 100 µM | TGI (SF-268 CNS): > 100 µM | TGI (UACC-257 melanoma): > 100 µM | TGI (NCI-H226 lung): > 100 µM | TGI (U251 CNS): > 100 µM | TGI (SF-539 CNS): > 100 µM | TGI (SR leukemia): > 100 µM | TGI (MDA-MB-435): > 100 µM | TGI (K-562 leukemia): > 100 µM | TGI (NCI-H23 lung): > 100 µM | TGI (SW-620 colon): > 100 µM | TGI (LOX IMVI melanoma): > 100 µM | TGI (HCT-116 colon): > 100 µM | TGI (HCC-2998 colon): > 100 µM | TGI (UO-31 renal): > 100 µM | TGI (DU-145 prostate): > 100 µM | TGI (PC-3 prostate): > 100 µM | TGI (OVCAR-4 ovarian): > 100 µM | TGI (SK-MEL-2 melanoma): > 100 µM | TGI (MCF7 breast): > 100 µM | TGI (ACHN renal): > 100 µM | TGI (T-47D breast): > 100 µM | TGI (NCI/ADR-RES ovarian): > 100 µM | TGI (UACC-62 melanoma): > 100 µM | TGI (M14 melanoma): > 100 µM | TGI (BT-549 breast): > 100 µM | TGI (HT29 colon): > 100 µM | TGI (MALME-3M melanoma): > 100 µM | TGI (IGROV1 ovarian): > 100 µM | TGI (RPMI-8226 leukemia): > 100 µM | TGI (CAKI-1 renal): > 100 µM | TGI (MDA-MB-231 breast): > 100 µM | TGI (NCI-H460 lung): > 100 µM | TGI (OVCAR-5 ovarian): > 100 µM | TGI (COLO 205 colon): > 100 µM | TGI (SK-OV-3 ovarian): > 100 µM | TGI (786-0 renal): > 100 µM | TGI (HCT-15 colon): > 100 µM | TGI (TK-10 renal): > 100 µM | TGI (A498 renal): > 100 µM | TGI (A549 NSCLC): > 100 µM | TGI (SK-MEL-5 melanoma): > 100 µM | TGI (SNB-19 CNS): > 100 µM | TGI (HOP-62 NSCLC): > 100 µM | TGI (EKVX NSCLC): > 100 µM | TGI (KM12 colon): > 100 µM | TGI (SF-295 CNS): > 100 µM | TGI (OVCAR-3 ovarian): 81.3 µM

CO/N=C(/C)c1ccc(NC(=O)CSc2nnc(-c3ccncc3)n2-c2ccccc2)cc1
GI50 (MOLT-4 leukemia): > 100 µM | TGI (MOLT-4 leukemia): > 100 µM | GI50 (U251 CNS): 3.22 µM | TGI (U251 CNS): > 100 µM | GI50 (SR leukemia): > 100 µM | TGI (SR leukemia): > 100 µM | GI50 (K-562 leukemia): > 100 µM | TGI (K-562 leukemia): > 100 µM | GI50 (NCI-H23 lung): 4.24 µM | TGI (NCI-H23 lung): > 100 µM | GI50 (SW-620 colon): > 100 µM | TGI (SW-620 colon): > 100 µM | GI50 (SK-MEL-28 melanoma): > 100 µM | TGI (SK-MEL-28 melanoma): > 100 µM | GI50 (HCT-116 colon): 3.43 µM | TGI (HCT-116 colon): > 100 µM | GI50 (HCC-2998 colon): > 100 µM | TGI (HCC-2998 colon): > 100 µM | GI50 (SK-MEL-2 melanoma): 11.1 µM | TGI (SK-MEL-2 melanoma): 55.1 µM | GI50 (HOP-92 NSCLC): 2.32 µM | TGI (HOP-92 NSCLC): 6.07 µM | GI50 (M14 melanoma): > 100 µM | TGI (M14 melanoma): > 100 µM | GI50 (HT29 colon): > 100 µM | TGI (HT29 colon): > 100 µM | GI50 (RPMI-8226 leukemia): > 100 µM | TGI (RPMI-8226 leukemia): > 100 µM | GI50 (RXF 393 renal): 2.24 µM | TGI (RXF 393 renal): 4.93 µM | GI50 (MDA-MB-231 breast): 2.57 µM | TGI (MDA-MB-231 breast): 8.79 µM | GI50 (OVCAR-5 ovarian): > 100 µM | TGI (OVCAR-5 ovarian): > 100 µM | GI50 (COLO 205 colon): > 100 µM | TGI (COLO 205 colon): > 100 µM | GI50 (SK-OV-3 ovarian): 3.34 µM | TGI (SK-OV-3 ovarian): > 100 µM | GI50 (HCT-15 colon): > 100 µM | TGI (HCT-15 colon): > 100 µM | GI50 (CCRF-CEM leukemia): > 100 µM | TGI (CCRF-CEM leukemia): > 100 µM | GI50 (A498 renal): 2.15 µM | TGI (A498 renal): 8.08 µM | GI50 (HL-60(TB) leukemia): > 100 µM | TGI (HL-60(TB) leukemia): > 100 µM | GI50 (KM12 colon): > 100 µM | TGI (KM12 colon): > 100 µM

Source: PubChem BioAssay (NCI)
